Assay results reported in patent US7528175B2, “Method of treating airway diseases with beta-adrenergic inverse agonists” (Inverseon, Inc., priority 2005, dated 2009).
Entries after “also recorded” stand apart in the source; their conditions may differ. Read-outs that look alike come from different tables or passages of the source.

Tests used:
[1] = tested on: β2-adrenergic receptor; format: binding, mice; conditions: 2 days of administration
Experimental: (§1) β2-adrenergic receptor numbers were measured in asthmatic mice as follows. […] Mice were sacrificed and lung membranes were isolated as follows. Frozen lung tissue was homogenized in an ice-cold buffer containing 0.32 M sucrose and 25 mM Tris (pH 7.4) using a polytron (Pro 200, Pro Scientific, Inc.). The homogenate was centrifuged at 1000×g for 10 min at 4° C. The resulting supernatant was centrifuged at 40,000×g for 20 min at 4° C. The pellet was suspended in an ice-cold 25 mM Tris-HCl buffer (pH 7.4) and centrifuged at 40,000×g for 20 min at 4° C. The final pellet was suspended in 200 μL of 25 mM Tris-HCl (pH 7.4); membrane protein concentration was determined by BCA protein assay kit. […] The incubation was done at 37° C. for 2 h and terminated by rapid vacuum filtration through glass fiber filters. The filters were washed three times with 250 μL of cold wash buffer (25 mM Tris-HCl, pH 7.4) and the radioactivity determined in a counter. […] Receptor densities are expressed as femtomoles of sites per milligram of protein. Bmax is determined by nonlinear regression of the saturation binding curves.

[2] = molecular target: β2-adrenergic receptor (Mus musculus, UniProt P18762); format: binding, mice
Experimental: as §1

[3] = tested on: asthmatic mice; assay: BALF cell number and type (Example 11); format: in vivo; conditions: vs nontreated asthmatic mice
From the text: The same mice as described in Example 1 underwent bronchoalveolar lavage (BAL) to determine the total number and type of immune system cells in the lung. BAL Fluid (BALF) was irrigated and collected from the lungs of mice as previously described (Evans K L, Bond R A, Corry […]. Frequency dependence of respiratory system mechanics during induced constriction in a murine model of asthma. J Appl Physiol. 2003 January;94(1):245-52). […] The number of neutrophils was increased in nontreated asthmatic mice compared to mice that served as controls for chronic beta-blocker treatments. In comparison to their notable effects on airway responsiveness, the β-AR ligands tested had very little effect on BALF cellularity. […] FIG. 12 has 3 panels of cell number and type of cells from the bronchoalveolar lavage fluid of asthmatic mice treated acutely or chronically with beta adrenergic ligands. Cells were identified as eosinophils (black bars), macrophages (hatched bars), neutrophils (grey bars), and lymphocytes (white bars) by standard morphologic criteria. At least 200 cells were counted per cytospin preparation, and the absolute number of each cell type was calculated based on the volume of fluid recovered from the lavage. […] Data are expressed as mean ±SEM and are representative of 6-25 animals per group. #P<0.05 compared to NTX, *P<0.05 compared to control (ANOVA).

[4] = tested on: asthmatic mice; assay: Airway resistance (Raw) response to methacholine in murine model of asthma (forced oscillation); format: in vivo, Balb/cJ mice
Experimental: Balb/cJ mice aged 6 weeks (Jackson Animal Laboratory, Bar Harbor, Me.) were housed under specific pathogen-free conditions and fed a chicken ovalbumin-free diet. The Animal Research Ethics Boards of both the University of Houston and the Baylor College of Medicine approved all experiments reported here. […] Mice were sensitized with subcutaneous injection of 25 μg of ovalbumin adsorbed to aluminum hydroxide on protocol days 2, 9, and 16. Subsequently, mice were given 50 μL of saline solution containing 25 μg of ovalbumin intranasally, on a daily basis, from protocol days 23 through 27. A group of ovalbumin-sensitized saline-challenged mice serves as controls for systemic sensitization and respiratory challenges with ovalbumin. Prior to intranasal administrations, mice were sedated with halothane vapor.
To examine the effects of duration of β-adrenergic ligand therapy on the phenotype of the murine model of asthma, the experimental drugs were administered either acutely or chronically to different groups of asthmatic mice.
Asthmatic mice on acute therapy were given a single intravenous bolus infusion of either β-adrenergic drug or normal saline on protocol day 28, 15 minutes before airway responsiveness to methacholine was determined. […] […] […] These concentrations were chosen based on those producing therapeutic effects in mice in previously published studies. The non-asthmatic mice were fed normal chow.
On protocol day 28, mice were anesthetized, tracheotomized, and connected to a computer-controlled small animal ventilator (Flexivent, Scientific Respiratory Equipment, Inc., Montreal, Canada). Airway resistance (Raw) was measured using the forced oscillation technique. The cellular composition of bronchoalveolar lavage fluid (BALF) was also determined.
To induce airway constriction, a solution containing 150 μg/mL of acetyl-α-methylcholine chloride (methacholine) (Sigma Chemical, St. Louis, Mo.) was infused intravenously at constant rates using a syringe infusion pump (Raze Scientific Instruments, Stanford, Conn.). […] Each methacholine dose was administered for 3 to 5 minutes, during which data were sampled at 1-minute intervals and then averaged.
The complex input impedance of the respiratory system was computed and the value of the real part of respiratory system impedance at 19.75 Hz was taken to reflect the magnitude of airway resistance (Raw). To examine the degree of airway responsiveness of each animal, the values for Raw as a function of methacholine doses were plotted. The largest value for Raw achieved in response to methacholine stimulation was referred to as Rawpeak. For mice that achieved a plateau in the methacholine dose-Raw response curve, the ED50 was calculated by linear interpolation using the GraphPad Prism4 (GraphPad Software, Inc.). […] The Bonferroni test was used to examine the statistical differences between experimental groups. The effects of acute drug treatments on baseline respiratory system mechanics were assessed using a two-tailed paired t-test. A value of P<0.05 was considered significant.
For these experiments, salbutamol was used for chronic administration at 0.5 mg/kg/day with a minipump and for acute administration at 0.15 mg/kg by i.v. bolus 15 minutes prior to challenge. Alprenolol was used at a high dose of 7200 ppm in chow or at a low dose of 720 ppm in chow. Carvedilol was used at a high dose of 2400 ppm in chow or at a low dose of 720 ppm in chow.

[5] = tested on: asthmatic mice; assay: Airway hyperresponsiveness, combination of carvedilol and salbutamol vs carvedilol monotherapy; format: in vivo, Balb/cJ mice; conditions: 28 days treatment; highest dose of methacholine
Experimental: Mice (Balb/cJ) aged 6 weeks were housed under specific pathogen-free conditions and fed a chicken ovalbumin-free diet. Mice were systemically sensitized with ovalbumin adsorbed to aluminum hydroxide. Mice were treated as follows: CAR/SAL 28D=for 28 days mice (n=6-12) were administered carvedilol (2400 ppm in animal chow) and salbutamol (subcutaneous delivery of 0.5 mg/kg/day in an Alzet #2400 osmotic minipump); NTX S/C=mice (n=6-12) no drug treatment for 28 days; CTRL=mice (n=6-12) no drug treatment for 28 days, not subsequently challenged; CARHD 28D=for 28 days mice (n=6-12) were administered carvedilol only (2400 ppm in animal chow); CARHD 28D SAL AC=for 28 days mice (n=6-12) were administered carvedilol (2400 ppm in animal chow) and 15 minutes prior to measuring airway hyperresponsiveness, salbutamol was administered at a dose of […].
To measure airway hyperresponsiveness after 28 days, all mice except the CTRL (control) mice were challenged with ovalbumin and then all mice were anesthetized, tracheotomized, and connected to a Flexivent small animal ventilator to measure airway resistance (Raw) by the forced oscillation technique. To induce airway constriction, a solution containing 150 μg/mL of methacholine was infused using a syringe infusion pump. The methacholine infusion was started at 0.008 mL/min and its rate was doubled stepwise up to a maximum […]. […]

[6] = tested on: patients with CHF; conditions: cited from earlier work
[7] = tested on: tracheas from asthmatic mice; conditions: chronic treatment of asthmatic mice, excised tracheas; cited from earlier work

β2-adrenergic receptor (Mus musculus, UniProt P18762), sequence (P18762 whole entry): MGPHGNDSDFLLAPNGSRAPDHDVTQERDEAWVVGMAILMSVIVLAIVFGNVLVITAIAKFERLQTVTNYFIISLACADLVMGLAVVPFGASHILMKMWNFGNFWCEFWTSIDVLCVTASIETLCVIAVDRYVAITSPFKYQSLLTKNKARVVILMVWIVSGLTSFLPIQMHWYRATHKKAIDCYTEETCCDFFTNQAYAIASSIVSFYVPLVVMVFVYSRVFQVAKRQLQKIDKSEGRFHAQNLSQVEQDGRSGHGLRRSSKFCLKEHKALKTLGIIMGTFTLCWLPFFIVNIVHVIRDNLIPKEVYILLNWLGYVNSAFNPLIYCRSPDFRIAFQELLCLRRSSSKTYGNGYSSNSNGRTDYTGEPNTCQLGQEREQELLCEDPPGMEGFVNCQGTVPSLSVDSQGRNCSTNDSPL

With COc1ccccc1OCCNCC(O)COc1cccc2[nH]c3ccccc3c12 (stereo not shown) [carvedilol] the “Increased β2AR density” value [1] was “no”, the Bmax ([2]; 15 Minutes drug treatment, lung membranes of asthmatic mice, mean±SEM) was 86.3 ± 19.42 femtomoles of sites per milligram of protein and the βmax ([2]; 28 Days drug treatment, lung membranes of asthmatic mice, mean±SEM) was 904.1 ± 43.46 femtomoles of sites per milligram of protein. For the same molecule, the “Increased β2AR density” value ([2]; 15 minutes of administration) was “no”, the “Increased β2AR density” value ([2]; 28 days of administration) was “showed an increase in receptor density at 28 days” and the “Increased β2AR density” value ([2]; 28 days of administration, listed as Carvedilol) was “yes”. For the same molecule, the “increase of the level of β2-adrenergic receptors over the non-treated mice” value ([2]; chronic administration) was “over 10 fold”, the BALF cellularity ([3]; acute treatment (15 minutes)) was “had no effects on BALF cellularity” and the BALF cellularity ([3]; chronic treatment (28 days)) was “had no effects on BALF cellularity”. The “Decreased Raw” value ([4]; 15 minutes of administration) was “no”, the “Decreased Raw” value ([4]; 2 days of administration) was “no” and the “Decreased Raw” value ([4]; 28 days of administration) was “yes”. The “airway responsiveness to methacholine provocation (Raw)” value ([4]; asthmatic mice, acute: single intravenous bolus 15 minutes before methacholine) was “enhanced the airway responsiveness”, the “sensitivity of the responsiveness to methacholine” value ([4]; asthmatic mice, chronic administration) was “shifts the sensitivity of the responsiveness to methacholine to lower concentrations” and the “airway responsiveness to methacholine provocation (Raw)” value ([4]; asthmatic mice, chronic administration for 28 days) was “does reduce airway hyperresponsiveness; also recorded: reduced the responsiveness of asthmatic mice to methacholine provocation”. The “protection from airway hyperresponsiveness” value ([4]; chronic administration, low and high doses in chow (FIGS. 8D-8G)) was “providing protection from airway hyperresponsiveness”, the “bronchoconstriction / airway hyperresponsiveness (Raw)” value [5] was “higher bronchoconstriction than these treatments but less than the non-drug treated sensitized and challenged (NTX S/C) mice” and the “clinical outcome in congestive heart failure” value [6] was “significant mortality reduction”. For the same molecule, the “effectiveness on tracheal contraction in response to methacholine (rank)” value [7] was “followed by carvedilol”.
